# Results taken from patent US8962830B2, “Protein kinase inhibitors and methods of treatment” (The Walter and Eliza Hall Institute of Medical Research, priority 2010, dated 2015).
# Target: T1, Src recombinant enzyme, N-terminally His6 tagged full-length human protein (Homo sapiens, UniProt P12931)
# T1 construct: Src recombinant enzyme was purchased as N-terminally His6 tagged full-length human protein; His6 (N); purchased
# Test: SRC kinase inhibition assay (AlphaScreen)
# Type: biochemical
# Conditions: 80 μM ATP, 90 minutes at 30 degree Celsius
# Description: Protocol for SRC Kinase Inhibition Assay. Compounds of the invention were tested for in vitro activity in the following assay: A biotin labeled peptide was used as substrate (amino acid sequence: Biotin-[…]). Src recombinant enzyme was purchased as N-terminally His6 tagged full-length human protein. The 15 μL assay reactions were run in Greiner brand white 384-well low volume plates. […] Compounds were added in a volume of 100 nL from dilution series made up in DMSO, positive and negative control reactions receiving the same volume DMSO without compounds. The plates were sealed with adhesive seals and incubated for 90 minutes at 30 degree Celsius. The reactions were stopped with the detection reagents added at the same time. Product formation was quantified as photochemiluminescence between PerkinElmer AlphaScreenTM beads, using Streptavidin-coated donor and anti-phosphotyrosine (P-[…]) acceptor beads. […] Plates were incubated for 5 hours before being read on a PerkinElmer EnVisionTM plate reader in HTS AlphascreenTM mode. IC50 values were obtained by calculating percent inhibition (% I) for each reaction relative to controls on the same plate (% [SMILES] where CN/CP are the averages of the negative/positive reactions, respectively), then fitting the % I data vs. compound concentration [I] to % I=([…])))) where A is the lower asymptote, B is the upper asymptote, C is the IC50 value, and D is the slope factor.
# T1 sequence (P12931 whole entry): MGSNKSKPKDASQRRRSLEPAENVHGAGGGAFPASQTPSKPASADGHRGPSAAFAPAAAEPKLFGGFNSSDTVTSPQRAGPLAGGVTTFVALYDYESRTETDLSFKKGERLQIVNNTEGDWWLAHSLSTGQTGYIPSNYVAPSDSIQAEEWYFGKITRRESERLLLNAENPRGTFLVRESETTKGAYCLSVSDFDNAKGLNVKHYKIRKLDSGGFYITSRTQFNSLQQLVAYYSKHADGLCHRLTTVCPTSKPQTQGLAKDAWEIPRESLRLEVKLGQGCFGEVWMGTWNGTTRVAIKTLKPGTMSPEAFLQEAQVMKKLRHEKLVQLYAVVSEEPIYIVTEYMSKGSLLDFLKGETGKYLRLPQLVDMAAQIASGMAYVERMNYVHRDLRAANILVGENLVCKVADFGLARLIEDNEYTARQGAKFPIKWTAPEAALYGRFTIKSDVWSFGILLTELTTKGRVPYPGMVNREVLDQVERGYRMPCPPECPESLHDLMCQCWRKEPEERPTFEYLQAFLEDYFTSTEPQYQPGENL
row,SMILES,IC50 [nM]
1,Cc1ccc(-c2nn(C(C)(C)CN(C)C)c3ncnc(N)c23)cc1 [Example 3],1000 to 10000
2,Cc1ccc(-c2nn(C(C)(C)CNC(=O)c3ccncc3)c3ncnc(N)c23)cc1 [Example 67],1000 to 10000
3,Cc1ccc(-c2nn(C(C)(C)CNC(=O)c3cc(-c4ccc(F)cc4)ncn3)c3ncnc(N)c23)cc1 [Example 24],1000 to 10000
4,Cc1ccc(-c2nn(C(C)(C)CNC(=O)Cc3ccccc3)c3ncnc(N)c23)cc1 [Example 9],1000 to 10000
5,Cc1ccc(-c2nn(C(C)(C)CNC(=O)CCN3CCOCC3)c3ncnc(N)c23)cc1 [Example 37],100 to 1000
6,Cc1ccc(-c2nn(C(C)(C)CNC(=O)c3ccc(Cl)nc3Cl)c3ncnc(N)c23)cc1 [Example 47],100 to 1000
7,Cc1ccc(-c2nn(C(C)(C)CNC(=O)c3ccc(N4CCCCC4)cc3)c3ncnc(N)c23)cc1 [Example 21],100 to 1000
8,CC(=O)c1ccc(OCC(=O)NCC(C)(C)n2nc(-c3ccc(C)cc3)c3c(N)ncnc32)cc1 [Example 25],1000 to 10000
9,Cc1ccc(-c2nn(C(C)(C)CNC(=O)c3cccn3C)c3ncnc(N)c23)cc1 [Example 33],100 to 1000
10,Cc1ccc(-c2nn(C(C)(C)CNC(=O)c3cccc(N4CCOCC4)c3)c3ncnc(N)c23)cc1 [Example 18],100 to 1000
11,Cc1ccc(-c2nn(C(C)(C)CNc3ncccn3)c3ncnc(N)c23)cc1 [Example 88],100 to 1000
12,Cc1ccc(-c2nn(C(C)(C)CNC(=O)CCOc3ccccc3)c3ncnc(N)c23)cc1 [Example 39],100 to 1000
13,Cc1ccc(-c2nn(C(C)(C)CNC(=O)c3cnc4ccccc4n3)c3ncnc(N)c23)cc1 [Example 51],100 to 1000
14,Cc1ccc(-c2nn(C(C)(C)CNS(=O)(=O)c3ccccn3)c3ncnc(N)c23)cc1 [68 (compound 68B)],100 to 1000
15,Cc1ccc(-c2nn(C(C)(C)CNC(=O)CCCc3ccccc3)c3ncnc(N)c23)cc1 [Example 20],100 to 1000
16,CC(=O)CCC(=O)NCC(C)(C)n1nc(-c2ccc(C)cc2)c2c(N)ncnc21 [Example 16],1000 to 10000
17,Cc1ccc(-c2nn(C(C)(C)CNC(=O)c3cc(C)nn3Cc3ccc(F)cc3)c3ncnc(N)c23)cc1 [Example 27],100 to 1000

# Second part, the compound after the results:
row,IC50 [nM],SMILES
1,1 to 100,Cc1ccc(-c2nn(C(C)(C)CNC(=O)c3cc(CN4CCCCC4)ccn3)c3ncnc(N)c23)cc1 [Example 82]
2,1 to 100,Cc1ccc(-c2nn(C(C)(C)CNC(=O)c3ncccn3)c3ncnc(N)c23)cc1 [Example 58]
3,100 to 1000,Cc1ccc(-c2nn(C(C)(C)CNC(C)C)c3ncnc(N)c23)cc1 [Example 8]
4,1 to 100,CCNC(=O)NCC(C)(C)n1nc(-c2ccc(C)cc2)c2c(N)ncnc21 [Example 7]
5,100 to 1000,Cc1ccc(-c2nn(C(C)(C)CNC(=O)c3cccc(N4CCCCC4)c3)c3ncnc(N)c23)cc1 [Example 22]
6,1 to 100,Cc1ccc(-c2nn(C(C)(C)CNC(=O)c3cc(-c4ccco4)on3)c3ncnc(N)c23)cc1 [Example 23]
7,100 to 1000,Cc1ccc(-c2nn(C(C)(C)CNC(=O)c3ccnc(Cl)n3)c3ncnc(N)c23)cc1 [Example 44]
8,100 to 1000,CNCC(C)(C)n1nc(-c2ccc(C)cc2)c2c(N)ncnc21 [4 (compound 4C)]
9,100 to 1000,Cc1ccc(-c2nn(C(C)(C)CNC(=O)c3cccc(Br)n3)c3ncnc(N)c23)cc1 [Example 40]
10,1 to 100,Cc1ccc(-c2nn(C(C)(C)CNC(=O)c3cnn(-c4ccc(F)cc4)c3C(F)(F)F)c3ncnc(N)c23)cc1 [Example 28]
11,1 to 100,Cc1ccc(-c2nn(C(C)(C)CNC(N)=S)c3ncnc(N)c23)cc1 [6 (compound 6B)]
12,1 to 100,Cc1ccc(-c2nn(C(C)(C)CNC(=O)c3ccc(C)cn3)c3ncnc(N)c23)cc1 [Example 72]
13,1 to 100,Cc1ccc(-c2nn(C(C)(C)CNC(=O)c3ccc(CCN)cc3)c3ncnc(N)c23)cc1 [10 (compound 10C)]
14,1 to 100,Cc1ccc(-c2nn(C(C)(C)CNC(=O)c3cc(CN4CCOCC4)ccn3)c3ncnc(N)c23)cc1 [Example 83]
